# System: Panc-1 cells
# Test: Detachment assay, Panc-1
# Assay type: cell-based, human
# Details: for detachment: 48 hours
# Experimental: Cell Viability Assay—The Cells were treated with peptides for 24 hours at different peptide concentrations. The 3-(4,5-dimethylthiazol-2-yl)-5-(3-carboxymethoxyphenyl)-2-(4-sulfophenyl)-2H-tetrazolium compound from Promega Viability kit (Madison, Ill.) was added, and the cells were incubated at 37° C. for 1-2 hours. The optical density on 96-plate was analyzed with a microplate reader at 490 nm to determine cell viability. In addition, cells were stained with trypan blue after 24 hours of treatment with Y15 and the percent of cells that stained positive were determined with a hemacytometer. Cell adhesion assay—The poly-L-Lysine or Collagen (5 μg/ml) coated 96-well plates were blocked with the blocking buffer (medium with 0.5% BSA) for 1 hour at 37 C. The cells were pre-treated with drugs for 3 hours and plated for adhesion at 4×10^5 cells. Cells were incubated at 37 C for 1 hour, fixed in 3.7% formaldehyde, washed in 0.1% BSA in PBS and stained with crystal violet (5 mg/ml in 2% ethanol) for 10 minutes. Then 2% SDS was added to the dried plated and OD at 590 nm was measured for detecting cell adhesion. […] Protein concentrations were determined using a Bio-Rad Kit. The boiled samples were loaded on Ready SDS-10% PAGE gels (Bio Rad, Inc) and used for Western blot analysis with the protein-specific antibody. […] We calculated the percent of detachment by dividing the number of detached cells by the total number of cells. The percent of detached cells was calculated in three independent experiments. […] The percent of apoptotic cells was calculated as a ratio of apoptotic detached cells divided by the total number of cells in three independent experiments in several fields with the fluorescent microscope. For each experiment 300 cells per treatment were counted. […]
smiles,measurement,setting,value
"Cl.Cl.Cl.Cl.Nc1cc(N)c(N)cc1N [Y15, 1,2,4,5-benzenetetraamine tetrahydrochloride]",detachment compared with TAE226,,more detachment than TAE226
same,detachment,10 μM,13%
same,detachment,50 μM,32%
